Read-outs that look alike come from different tables or passages of the source. Positions of bridges follow the written chain, without caps; N, C: chain ends. Non-standard residues stand in square brackets, D forms with d. Residues, ends and D or L forms follow the SMILES beside them. Chains are numbered I, II in the order given. Lys(Me3) = C[N+](C)(C)CCCC[C@H](N)C(=O)O
Biological target: T1, PSIP1^PWWP (AA 2-100, Uniprot-ID: O75475) (Homo sapiens, UniProt O75475)
T1 construct: PSIP1^PWWP (AA 2-100, Uniprot-ID: O75475); GST (cleaved yes); made in house; host or cells: E. coli BL21 Rosetta2 (DE3)
T1 sequence (O75475 2-100): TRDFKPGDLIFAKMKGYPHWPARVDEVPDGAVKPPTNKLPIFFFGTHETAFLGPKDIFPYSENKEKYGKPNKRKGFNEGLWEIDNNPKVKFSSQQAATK
Assay: NMR titration (15N-HSQC chemical shift perturbation) of peptides binding to PSIP1 PWWP domain
Experimental: Cells were grown to an OD of 0.6 and induced with 500 μM IPTG. The protein was expressed for 3 h at 37 °C. […] The GST-fusion protein was eluted using elution buffer (50 mM KPi pH 7.0, 100 mM KCl, 50 mM reduced glutathione, 1 mM DTT, complete EDTA-free protease inhibitor (Roche)). Thrombin cleavage of the GST-tag was carried out for 3 h at 37 °C after adding 10U of thrombin to the combined eluted fractions, then quenched by addition of 1 mM PMSF and incubation for 15 min at 37 °C. […] The PWWP-containing fractions were then combined and dialyzed to NMR buffer (20 mM NaPi (pH = 7.0), 150 mM NaCl, cOmplete protease inhibitor, 10% (v/v) D2O).
All peptides were dissolved in NMR buffer (20 mM NaPi (pH = 7.0), 150 mM NaCl, cOmplete protease inhibitor, 10% (v/v) D2O). The pH for all peptide stocks was adjusted to 7.0 using NH4OH. Determination of peptide stock concentrations was done using 1D NMR spectra with TSP as reference compound. […] The Val signal was verified by 2D NMR spectra (TOCSY, ^13C-HSQC).
All NMR experiments were carried out at 298 K on a Bruker Avance spectrometer operating at 750 MHz ^1H Larmor frequency with room-temperature probe. Processing was done using the Bruker’s TopSpin. Spectra were analyzed using Sparky (Goddard and Kneller, UCSF).
Titration data were fitted using MatLAB scripts (available upon request) using the fast-exchange assumption [50]. […] Profiles were selected either form the ^1H or ^15N dimension. A 1:1 binding model was assumed. […] The degrees of freedom are equal to total number of points NM compensated for the number of global variables (KD), the M offset-variables and M chemical shift differences. To obtain the 95% confidence limits in the KD, a one-dimensional grid search was performed either systematically increasing or decreasing the KD until the reduced χ^2 exceeded the 95% critical value according to an F-test.
Analysis of the bound-state chemical shifts was based on selected residues K14 (^1H/^15N), M15 (^1H), W21 (^1H), F44 (^15N) T47 (^1H/^15N), H48 (^1H), T50 (^1H/^15N) and A51 (^1H/^15N) due to their significant shift in all experiments.

Compound: CC(=O)N[C@@H](CO)C(=O)N[C@@H](C)C(=O)N1CCC[C@H]1C(=O)N[C@@H](C)C(=O)N[C@H](C(=O)NCC(=O)NCC(=O)N[C@H](C(=O)N[C@@H](CCCC[N+](C)(C)C)C(=O)N[C@@H](CCCCN)C(=O)N1CCC[C@H]1C(=O)N[C@@H](CCC(=O)O)C(=O)N[C@@H](CCC(=O)O)C(=O)N[C@@H](CCC(=O)O)C(=O)N[C@@H](CCC(=O)O)C(=O)N[C@@H](CCC(=O)O)C(=O)N[C@@H](CCC(=O)O)C(N)=O)C(C)C)[C@@H](C)O [H3^PE6] (Ac-SAPATGGV[Lys(Me3)]KPEEEEEE-NH2)
- Kd (~300 µM 15N-PSIP1^PWWP, 20 mM NaPi pH 7.0, 150 mM NaCl, 10% D2O, 298 K, 1:1 binding model, fast exchange, global fit of all residues with significant CSP, read-out: KD, best-fit value (global fit of NMR titration data)): 1740 µM

Compound: CC(=O)N[C@@H](CO)C(=O)N[C@@H](C)C(=O)N1CCC[C@H]1C(=O)N[C@@H](C)C(=O)N[C@H](C(=O)NCC(=O)NCC(=O)N[C@H](C(=O)N[C@@H](CCCC[N+](C)(C)C)C(=O)NCC(=O)NCC(=O)NCCCC[C@H](NC(=O)CNC(=O)CNC(=O)[C@H](CCC(=O)O)NC(=O)[C@H](CCC(=O)O)NC(=O)[C@H](CCC(=O)O)NC(=O)[C@H](CCC(=O)O)NC(=O)[C@H](CCC(=O)O)NC(C)=O)C(=O)NCC(=O)NCC(=O)N[C@@H](CCC(=O)O)C(=O)N[C@@H](CCC(=O)O)C(=O)N[C@@H](CCC(=O)O)C(=O)N[C@@H](CCC(=O)O)C(=O)N[C@@H](CCC(=O)O)C(N)=O)C(C)C)[C@@H](C)O [H3^(E5)2] (I: Ac-EEEEEGGKGGEEEEE-NH2 / II: Ac-SAPATGGV[Lys(Me3)]GG; amide I:8-II:C; N-terminus and C-terminus assumed)
- Kd (same titration and fit, limits from grid search, F-test, read-out: KD, 95% probability limits): 190 to 700 µM
- Kd (~300 µM 15N-PSIP1^PWWP, 20 mM NaPi pH 7.0, 150 mM NaCl, 298 K, 1:1 binding model, read-out: KD (global fit of NMR-derived binding curves)): 360 µM

Source: PMC7662849, “Mimicking the Nucleosomal Context in Peptide-Based Binders of a H3K36me Reader Increases Binding Affinity While Altering the Binding Mode” (Molecules, 2020)
